Assay results reported in patent US20230123497A1, “NOVEL ANTIBACTERIAL HYDROGELS” (NewSouth Innovations Pty Limited, priority 2020, published 2023).
Values joined by “and” are separate entries in the source; they are usually repeats but may differ in a detail not shown here. Equal values may be shown once.

Assays:
E. coli K12 [1] = test: Antibacterial activity of NO released from hydrogel 4 under blue light, viable count method; assay type: cell-based, Escherichia coli
Protocol: The antibacterial activity of NO released from hydrogel 4 was investigated in vitro. Initially, a single colony of E. coli K12 was grown in LB broth medium (Sigma-Aldrich) at 37° C. overnight. The resulting bacteria were harvested via centrifugation to obtain a bacteria pallet which was re-suspended in the same volume of LB, twice. The optical density value of the resulting culture was adjusted to 0.1 at 600 nm (10^8 cfu·mL^−1). This bacteria solution was then further adjusted to 3×10^4 cfu·mL^−1.
Hydrogel 4 was prepared at 1% w/v in two different vials. The first vial (vial a) contained hydrogel 4 which will be exposed to blue light. Meanwhile vial b contained hydrogel 4, which will be covered using aluminium foil during the entire experiment. Furthermore, on top of these pre-formed hydrogels, 1 mL of bacteria solution was carefully cast. A vial c that contained only 1 mL of bacteria solution was also prepared. Subsequently, vial a and vial c were irradiated using blue light (440-450 nm). As a negative control, a bacteria solution in the absence of hydrogel and blue light was used in this experiment. After 2 hours, 100 μL of bacteria solution in each vial was taken and subjected to serial dilution using PBS. 20 μL of each dilution were carefully transferred into nutrient agar plates and incubated for another 18 hours. The following day, bacterial growth inhibition were quantified using viable count method. The experiment was performed twice in triplicate and multiple sample comparison was performed using one-way ANOVA at p<0.05.
Bacterial culture (1 mL containing 3×10^4 CFU) was carefully placed on top of hydrogel 4, followed by irradiation of blue light for 1 hour. The viability of bacteria after being exposed to blue light was calculated via the viable count method as illustrated in FIG. 15.
Hydrogel 4, by itself, might exert activity against E. coli. Therefore, the antibacterial activity of hydrogel 4 in the absence of blue light was also determined in a control experiment. […]

[2] = Hydrogel formation, vial inversion test (critical gel concentration); assay type: physicochemical; parameters: key: OG: opaque gel; P: precipitate; settings: solvent switch
Description: The simplest method to determine whether a suitable hydrogel has formed is to use the vial inversion test. Through visual inspection, a material can be categorised as a solution, viscous solution, partial gel, or solid-like gel. A stable hydrogel needs to be able to hold its weight and/or maintain its shape during this assessment.
The critical gel concentration (CGC) is defined as the minimum mass of a short peptide required to provide a self-supporting hydrogel per unit volume in the vial inversion test (measured as % w/v).
Pre-weighed samples of short peptide 4 were prepared in aluminium-covered glass vials and Milli-Q water and 2 equivalents of NaOH (1.0 M) were added to make up concentrations of 1% w/v. The resulting suspensions were vortexed for 5 minutes to provide clear yellow solutions with pH 11.
To create a high ionic strength environment, 1 equivalent of NaCl was added and the vial was left to stand without disturbance for 3 hours at room temperature. Meanwhile, as an attempt to form a hydrogel by lowering the pH, 2 equivalents of GdL were added to a high pH solution of 4 followed by gentle mixing. These vials were inverted and allowed to stand overnight to confirm the hydrogel formation.
The formation of hydrogel 4 via the solvent switch method was conducted by dissolving short peptide 4, in an aluminium covered glass vial, with either 50% methanol, ethanol, or dimethyl sulfoxide (DMSO). Respective amounts of Mili-Q water were added to make up concentrations of 1% w/v.
In addition, gelation time was defined as the time (hours) required for 1% w/v of short peptide 4 to form a hydrogel which can be turned upside down without collapsing.
Pre-weighed samples of short peptides 10a-17a, 18, and 19 were prepared in glass vials with 10 mm internal diameter, and Milli-Q water was added to make up concentrations of 1% w/v. The resulting suspensions of short peptides 13, 18, and 19 (as ammonium or guanidinium salts) were slowly warmed until all solid had completely dissolved. GdL (1.5 to 2.0 equivalents) was added to the suspension of short peptides 10a-17a, before heat was applied. To create a high ionic strength environment, 1-5 equivalents of NaCl was added to the viscous solution of 10a-17a to make the total volume up to 1 mL, followed by gentle mixing, and the vial was left to stand without disturbance for 3 hours at room temperature. Subsequently, these vials were inverted and allowed to stand overnight to confirm hydrogel formation.

E. coli K12 [3] = test: Antibacterial activity of cationic hydrogel 11, viable count method; assay type: cell-based, Escherichia coli; settings: hydrogel 11 at 1% w/v in contact with E. coli
Protocol: (§1) The antibacterial activity of the anthranilamide-based cationic hydrogels 11-13 and 15-19 was investigated in vitro against S. aureus. The antibacterial activity of anthranilamide-based cationic hydrogel 11 was also investigated in vitro against E. coli.
First, a single colony of S. aureus 38 or E. coli K12 was grown in Luria-Bertani (LB) broth medium at 37° C. overnight. The resulting bacteria were harvested, via centrifugation, to obtain a bacteria pellet which was re-suspended in the same volume of LB medium, twice. The optical density (OD) value of the resulting culture was adjusted to 0.1 at 600 nm in LB (10^8 cfu·mL^−1). This bacteria solution was then further adjusted to 3×10^4 cfu mL^−1. (CFU or cfu=colony-forming unit). Bacteria solutions (1 mL), which contain either 10^8 CFUs/mL or 3×10^4 CFUs/mL, were gently added to hydrogel 11 at 1% w/v with total volume of 1 mL. Anthranilamide-based cationic hydrogels 11-13 and 15-19 (1 mL) were prepared at 1% w/v in glass vials as described above. On top of these pre-formed hydrogels, 1 mL of bacteria solution was carefully cast. […] As a negative control, a bacterial solution in the absence of hydrogel was used. […] The following day, bacterial growth inhibition was quantified using the viable count method. […]

S. aureus 38 = test: Antibacterial activity of cationic hydrogels, viable count method; assay type: cell-based, Staphylococcus aureus; settings: hydrogel at 1% w/v in contact with S. aureus, compared to control
Protocol: as §1
First, a single colony of S. aureus 38 or E. coli K12 was grown in Luria-Bertani (LB) broth medium at 37° C. overnight. The resulting bacteria were harvested, via centrifugation, to obtain a bacteria pellet which was re-suspended in the same volume of LB medium, twice. The optical density (OD) value of the resulting culture was adjusted to 0.1 at 600 nm in LB (10^8 cfu·mL^−1). This bacteria solution was then further adjusted to 3×10^4 cfu mL^−1. (CFU or cfu=colony-forming unit). Bacteria solutions (1 mL), which contain either 10^8 CFUs/mL or 3×10^4 CFUs/mL, were gently added to hydrogel 11 at 1% w/v with total volume of 1 mL. Anthranilamide-based cationic hydrogels 11-13 and 15-19 (1 mL) were prepared at 1% w/v in glass vials as described above. On top of these pre-formed hydrogels, 1 mL of bacteria solution was carefully cast. […] As a negative control, a bacterial solution in the absence of hydrogel was used. After being incubated at 37° C. for 18 hours, 100 μL of bacteria solution in each vial was taken and subjected to serial dilution using phosphate buffer solution (PBS). 20 μL of each dilution were carefully transferred into nutrient agar plates and incubated for another 18 hours. The following day, bacterial growth inhibition was quantified using the viable count method. The experiment was performed twice in triplicate and multiple sample comparison was performed using one-way ANOVA at p<0.05.

Row | Remarks (gel state) ([2]; DMSO 5 % v/v) | Remarks (gel state) ([2]; DMSO 50 % v/v) | Remarks (gel state) ([2]; EtOH 5 % v/v) | Remarks (gel state) ([2]; EtOH 50 % v/v) | Remarks (gel state) ([2]; MeOH 5 % v/v) | Remarks (gel state) ([2]; MeOH 50 % v/v) | Compound | Log reduction (E. coli K12 [1]; hydrogel 4 1% w/v, blue light irradiation 1 hour) | bacterial number after treatment (E. coli K12 [1]; hydrogel 4 1% w/v, blue light irradiation 1 hour, from 3×10^4 CFUs) | bacterial reduction without light (E. coli K12 [1]; hydrogel 4 without light irradiation) | bacteria reduction (E. coli K12 [3]) | bacterial reduction (S. aureus 38)
1 | P | OG | P | OG | P | OG | O=C(Nc1ccccc1C(=O)N[C@@H](Cc1ccccc1)C(=O)N[C@@H](Cc1ccccc1)C(=O)O)c1ccc([N+](=O)[O-])c(C(F)(F)F)c1 [Compound 4, (2-(4-Nitro-3-(trifluoromethyl)benzamido)benzoyl)-L-phenylalanyl-L-phenylalanine] | ~3 Log | 34 CFUs | no bacterial reduction was observed | – | –
2 | – | – | – | – | – | – | NCCCNC(=O)[C@H](Cc1ccccc1)NC(=O)c1ccccc1NC(=O)c1ccc2ccccc2c1 [Compound 11] | – | – | – | 6.4 Log10 and 6.2 Log10 | 9.0 Log10
